Values after ≈ are worked out from the molar mass of the structure shown.
How the values were obtained:
[1] = tested on: Streptococcus pneumoniae; assay: Minimum inhibitory concentration (MIC) by agar dilution; assay type: cell-based; conditions: in vitro, agar dilution (NCCLS 1993), Streptococcus pneumoniae strain SPNE 9912; read-out: Antibacterial Activity Minimum Inhibitory Concentration SPNE 9912
Source text: The oxazolidinone antibacterial agents of this invention have useful activity against a variety of organisms. The in vitro activity of compounds of this invention can be assessed by standard testing procedures such as the determination of minimum inhibitory concentration (MIC) by agar dilution as described in “Approved Standard. Methods for Dilution Antimicrobial Susceptibility Tests for Bacteria That Grow Aerobically”, 3rd. ed., published 1993 by the National Committee for Clinical Laboratory Standards, Villanova, Pa. USA.

SMILES	MIC [1] [µg/mL]	melting point
CC(=O)NC[C@H]1CN(c2ccc3c(c2)CCSC3)C(=O)O1 [Example 10, (−)-N-[[(5S)-3-(3,4-Dihydro-1H-2-benzothiopyran-6-yl)-2-oxo-5-oxazolidinyl]methyl]acetamide]	1 (≈ 3.26 µM)	112 to 114 °C (dec.)
CC(=S)NC[C@H]1CN(c2ccc3c(c2)CCSC3)C(=O)O1 [Example 11, (+)-N-[[(5S)-3-(3,4-Dihydro-1H-2-benzothiopyran-6-yl)-2-oxo-5-oxazolidinyl]methyl]ethanethioamide]	0.25 (≈ 0.775 µM)	112 to 114 °C (dec.)
CC(=S)NC[C@H]1CN(c2ccc3c(c2)CCS(=O)(=O)C3)C(=O)O1 [Example 12, (+)-N-[[(5S)-3-(3,4-Dihydro-2,2-dioxido-1H-2-benzothiopyran-6-yl)-2-oxo-5-oxazolidinyl]methyl]ethanethioamide]	1 (≈ 2.82 µM)	187 °C (dec.)
CC(=S)NC[C@H]1CN(c2ccc3c(c2)COCC3)C(=O)O1 [Example 13, (+)-N-[[(5S)-3-(3,4-Dihydro-1H-2-benzopyran-7-yl)-2-oxo-5-oxazolidinyl]methyl]ethanethioamide]	1 (≈ 3.26 µM)	165 °C (dec.)
CC(=O)NC[C@H]1CN(c2ccc3c(c2)CCN(C(=O)Cc2cccc(C(F)(F)F)c2)CC3)C(=O)O1 [Example 32]	2 (≈ 4.09 µM)	
CC(=O)NC[C@H]1CN(c2ccc3c(c2)CCN(C(=O)Cc2ccc(C(F)(F)F)cc2)CC3)C(=O)O1 [Example 33]	2 (≈ 4.09 µM)	
CC(=O)CCC(=O)N1CCc2ccc(N3C[C@H](CNC(C)=O)OC3=O)cc2CC1 [Example 34]	2 (≈ 4.98 µM)	
CC(=O)CCCC(=O)N1CCc2ccc(N3C[C@H](CNC(C)=O)OC3=O)cc2CC1 [Example 35, N-({(5S)-2-Oxo-3-[3-(5-oxohexanoyl)-1,2,4,5-tetrahydro-1H-3-benzazepin-7-yl]-1,3-oxazolidin-5-yl}methyl)acetamide]	1 (≈ 2.41 µM)	
CC(=O)NC[C@H]1CN(c2ccc3c(c2)CCCN(C=O)C3)C(=O)O1 [Example 36, N-{[(5S)-3-(2-Formyl-1,3,4,5-tetrahydro-1H-2-benzazepin-7-yl)-2-oxo-1,3-oxazolidin-5-yl]methyl}acetamide]	< 0.5	
CC(=O)NC[C@H]1CN(c2ccc3c(c2)CCCN(C(=O)CO)C3)C(=O)O1 [Example 37, N-{[(5S)-3-(2-Glycoloyl-1,3,4,5-tetrahydro-1H-3-benzazepin-7-yl)-2-oxo-1,3-oxazolidin-5-yl]methyl}acetamide]	1 (≈ 2.77 µM)	
CC(=O)NC[C@H]1CN(c2ccc3c(c2)CCCN(C(C)=O)C3)C(=O)O1 [Example 38, N-{[(5S)-3-(2-Acetyl-1,3,4,5-tetrahydro-1H-2-benzazepin-7-yl)-2-oxo-1,3-oxazolidin-5-yl]methyl}acetamide]	2 (≈ 5.79 µM)	
CC(=O)NC[C@H]1CN(c2ccc3c(c2)CCCN(C(=O)Nc2ccccc2)C3)C(=O)O1 [Example 40, 7-{(5S)-5-[(Acetylamino)methyl]-2-oxo-1,3-oxazolidin-3-yl}-N-phenyl-1,3,4,5-tetrahydro-2H-2-benzazepine-2-carboxamide]	1 (≈ 2.37 µM)	
CC(=S)NC[C@H]1CN(c2ccc3c(c2)CCN(C(=O)CO)CC3)C(=O)O1 [Example 41, N-{[(5S)-3-(3-Glycoloyl-1,2,4,5-tetrahydro-1H-3-benzazepin-7-yl)-2-oxo-1,3-oxazolidin-5-yl]methyl}ethanethioamide]	0.125 (≈ 0.331 µM)	
CC(=O)NC[C@H]1CN(c2ccc3c(c2)CCN(c2nnc(N)s2)CC3)C(=O)O1 [Example 42, N-({(5S)-3-[3-(5-Amino-1,3,4-thiadiazol-2-yl)-1,2,4,5-tetrahydro-1H-3-benzazepin-7-yl]-2-oxo-1,3-oxazolidin-5-yl}methyl)acetamide]	0.5 (≈ 1.24 µM)	
CSc1nnc(N2CCc3ccc(N4C[C@H](CNC(C)=O)OC4=O)cc3CC2)s1 [Example 43, N-({(5S)-3-[3-(5-Methylthio-1,3,4-thiadiazol-2-yl)-1,2,4,5-tetrahydro-1H-3-benzazepin-7-yl]-2-oxo-1,3-oxazolidin-5-yl}methyl)acetamide]	0.5 (≈ 1.15 µM)	
CC(=O)NC[C@H]1CN(c2ccc3c(c2)CCN(c2nnc(C)s2)CC3)C(=O)O1 [Example 44, N-({(5S)-3-[3-(5-Methyl-1,3,4-thiadiazol-2-yl)-1,2,4,5-tetrahydro-1H-3-benzazepin-7-yl]-2-oxo-1,3-oxazolidin-5-yl}methyl)acetamide]	1 (≈ 2.49 µM)	
CC(=O)NC[C@H]1CN(c2ccc3c(c2)CCN(c2nnc(NC=O)s2)CC3)C(=O)O1 [Example 45, N-[((5S)-3-{3-[5-(Formylamino)-1,3,4-thiadiazol-2-yl]-1,2,4,5-tetrahydro-1H-3-benzazepin-7-yl}-2-oxo-1,3-oxazolidin-5-yl)methyl]acetamide]	0.5 (≈ 1.16 µM)	
CC(=O)NC[C@H]1CN(c2ccc3c(c2)CCN(c2nnc(NC(=O)CO)s2)CC3)C(=O)O1 [Example 46, N-[5-(7-{(5S)-5-[(Acetylamino)methyl]-2-oxo-1,3-oxazolidin-3-yl}-1,2,4,5-tetrahydro-3H-3-benzazepin-3-yl)-1,3,4-thiadiazol-2-yl]-2-hydroxyacetamide]	0.5 (≈ 1.09 µM)	
CC(=O)NC[C@H]1CN(c2ccc3c(c2)CCSCC3)C(=O)O1 [Example 47, N-[[(5S)-2-Oxo-3-(1,2,4,5-tetrahydro-3-benzothiepin-7-yl)-5-oxazolidinyl]methyl]acetamide]	2 (≈ 6.24 µM)	
CC(=O)NC[C@H]1CN(c2ccc3c(c2)CCS(=O)(=O)CC3)C(=O)O1 [Example 48, N-[[(5S)-2-Oxo-3-(1,2,4,5-tetrahydro-3,3-dioxido-3-benzothiepin-7-yl)-5-oxazolidinyl]methyl]acetamide]	8 (≈ 22.7 µM)	
CC(=S)NC[C@H]1CN(c2ccc3c(c2)CCSCC3)C(=O)O1 [Example 49, N-[[(5S)-2-Oxo-3-(1,2,4,5-tetrahydro-3-benzothiepin-7-yl)-5-oxazolidinyl]methyl]ethanethioamide]	0.5 (≈ 1.49 µM)	
CC(=S)NC[C@H]1CN(c2ccc3c(c2)CCS(=O)(=O)CC3)C(=O)O1 [Example 50, N-[[(5S)-2-Oxo-3-(1,2,4,5-tetrahydro-3,3-dioxido-3-benzothiepin-7-yl)-5-oxazolidinyl]methyl]ethanethioamide]	1 (≈ 2.71 µM)	
